“Also recorded” adds a separate entry of the source. Each block holds one compound with its values, some of them ahead of it.
What was measured:
HCN1 channels = target: T1, HCN1 channels (Mus musculus, UniProt O88704); assay: Two electrode voltage clamp of HCN1 channels expressed in Xenopus oocytes (shift in V1/2); assay type: cell-based; conditions: for potency as HCN1 inverse agonist compared with propofol: relative to propofol (2,6-di-iso-propylphenol); for offset of the 2,6-DTBP Hill fit of the V1/2 shift: right shift of the concentration-response relative to 2,6-DTBP, HCN1; for efficacy apparent in the concentration response (Hill fit): ΔV1/2 of HCN1, 2,6 di-alkylbenzene analogues; for inhibition of HCN1 channel gating: 20 min pre-incubation, 20 mM HPβCD + DMSO, compared with free 2,6-DTBP
T1 sequence (O88704 74-390 limits assumed): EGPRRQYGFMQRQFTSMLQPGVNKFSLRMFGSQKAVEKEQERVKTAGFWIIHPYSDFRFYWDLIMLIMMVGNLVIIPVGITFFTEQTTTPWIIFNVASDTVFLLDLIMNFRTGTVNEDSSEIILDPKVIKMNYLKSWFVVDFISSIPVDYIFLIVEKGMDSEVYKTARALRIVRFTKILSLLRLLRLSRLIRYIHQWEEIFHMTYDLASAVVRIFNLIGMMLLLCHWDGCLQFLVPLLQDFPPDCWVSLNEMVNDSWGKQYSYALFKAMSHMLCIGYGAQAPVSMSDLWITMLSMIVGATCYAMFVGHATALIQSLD

[1] = system: mechanical and thermal hyperalgesia after nerve ligation; assay: Nerve ligation model: paw withdrawal probability and hindpaw withdrawal latency after cumulative i.p. dosing
[2] = system: chronic constriction injury model of peripheral neuropathic pain; conditions: bolus administration; cited from earlier work
HCN1 vs. HCN2-4 = assay: Effect on V1/2 of HCN1-4 channels (isoform selectivity); assay type: cell-based
[3] = system: normal nociception, locomotor activity, motor coordination, muscle strength; conditions: anti-hyperalgesic dose, cited from earlier work
[4] = Solubilisation in DMSO and dispersion into aqueous buffer; assay type: physicochemical
[5] = Whole blood concentration after oral gavage, LC-MS/MS; assay type: in vivo; conditions: rats, oral gavage in peanut oil, 0.58 mmole/kg, over 30 hours
Description: FIG. 29 is a graph showing the concentration of BP4L-18:1:1 in whole blood after administration to rats. Eight adult rats were gavaged with either 0.5 mL of peanut oil (n=4) or 0.5 mL of peanut oil containing 0.58 mmole/kg BP4L-18:1:1 (n=4). Blood samples were obtained at the indicated times. Following extraction using equi-volumes of acetonitrile, precipitation and filtration, blood concentrations of BP4L-18:1:1 were determined using LC-MS/MS. Dotted black lines indicate the concentrations of BP4L-18:1:1 for individual animals that received drug, the solid black line indicates the mean±SEM for the plus-drug cohort. Dotted and solid grey lines are, respectively, the concentrations of BP4L-18:1:1 detected in individual peanut oil-alone animals and the mean±SEM thereof. Grey lines superimpose and are indistinguishable from the time axis.
LCMS/MS was performed on an Agilent 1290 Infinity II UPLC system and Agilent 6495 Triple Quadrupole mass spectrometer. […] Quantitation was performed using multiple reaction monitoring in positive electrospray ionization mode using the transition 517.4→233.1 and a collision energy of 42. […]
Pharmacokinetic properties of exemplary compound BP4L-18:1:1 (compound 6) were evaluated in rats (FIG. 29). In particular, concentration of BP4L-18:1:1 in whole blood samples were determined over the course of 30 hours after oral administration.

[6] = system: animal models of neuropathic pain; conditions: in vivo; cited from earlier work
[7] = simultaneous fit, absence and presence of 3 μM 2,6-DTBP

SMILES: CCC(C)c1ccc(O)c(C(C)CC)c1 (stereo not drawn) [2,4-DSBP, 2,4-di-sec-butylphenol]
potency as HCN1 inverse agonist compared with propofol (HCN1 channels): less potent
offset of the 2,6-DTBP Hill fit of the V1/2 shift (HCN1 channels): 23 fold

potency as HCN1 inverse agonist compared with propofol (HCN1 channels): more potent
offset of the 2,6-DTBP Hill fit of the V1/2 shift (HCN1 channels): 2 fold
SMILES: CC(C)(C)c1ccc(O)c(C(C)(C)C)c1 [2,4-DTBP, 2,4-di-tert-butylphenol]

SMILES: CCc1cccc(CC)c1O [2,6-DEP]
efficacy apparent in the concentration response (Hill fit) (HCN1 channels): partial

SMILES: CC(C)C1CCCC(C(C)C)C1O (stereo not drawn) [2,6-DIPCH]
efficacy apparent in the concentration response (Hill fit) (HCN1 channels): partial

SMILES: CC(C)c1cccc(C(C)C)c1O [2,6-DIPP, 2,6-di-iso-propylphenol]
efficacy apparent in the concentration response (Hill fit) (HCN1 channels): full

SMILES: CCC(C)c1cccc(C(C)CC)c1O (stereo not drawn) [2,6-DSBP, 2,6-di-sec-butylphenol]
EC50 (HCN1 channels): 370 µM
potency as HCN1 inverse agonist compared with propofol (HCN1 channels): less potent
offset of the 2,6-DTBP Hill fit of the V1/2 shift (HCN1 channels): 15 fold
JcI (association constant, common site model N=4) (HCN1 channels; [7]): 3,696±2,948
JoI (association constant, common site model N=4) (HCN1 channels; [7]): 881±1,801
inverse agonist potency and efficacy (HCN1 channels; ΔV1/2 in absence and presence of 3 μM 2,6-DTBP): low potency, high efficacy, inverse agonist
efficacy apparent in the concentration response (Hill fit) (HCN1 channels): partial

SMILES: CC(C)(C)C1CCCC(C(C)(C)C)C1O (stereo not drawn) [2,6-DTBCH]
efficacy apparent in the concentration response (Hill fit) (HCN1 channels): partial

potency as HCN1 inverse agonist compared with propofol (HCN1 channels): more potent
efficacy apparent in the concentration response (Hill fit) (HCN1 channels): full
SMILES: CC(C)(C)c1cccc(C(C)(C)C)c1O [2,6-DTBP, 2,6-di-tert-butylphenol]
mechanical and thermal hyperalgesia with respect to mechanical and thermal nociception [1]: Selectively Suppresses Mechanical and Thermal Hyperalgesia
thermal hyperalgesia (HPWL) ([1]; heat source intensity 15%): ameliorates thermal hyperalgesia
thermal nociception (HPWL) ([1]; heat source intensity 30%): without overt effect
reversal of mechanical hypersensitivity [2]: ~45%
reversal of thermal hypersensitivity [2]: complete reversal
selectivity for HCN1 vs. HCN2-4 (HCN1 vs. HCN2-4): retains propofol's selectivity for HCN1 vs. HCN2-4
normal nociception (pin prick test) [3]: does not disrupt normal nociception
locomotor activity, motor coordination and muscle strength ([3]; open field, rotarod, horizontal wire): nor does it perturb

SMILES: CC(C)c1cc(N)cc(C(C)C)c1O [4-AP]
HCN1 antagonism by 4-substituted 2,6-DIPPs (HCN1 channels): effective

SMILES: CC(C)c1cc(C(C)(C)C)cc(C(C)C)c1O [4-TBP]
HCN1 antagonism by 4-substituted 2,6-DIPPs (HCN1 channels): fully effective

SMILES: CC(C)c1cc([N+](C)(C)C)cc(C(C)C)c1O [4-TMAP]
HCN1 antagonism by 4-substituted 2,6-DIPPs (HCN1 channels): ineffective

dispersion into an aqueous buffer [4]: reasonably easy to disperse
SMILES: CC(Cl)CCCCCCCCC(=O)c1cc(C(C)(C)C)c(O)c(C(C)(C)C)c1 (stereo not drawn) [BP4C-11:0:1]
HCN1 antagonism of tethered, unanchored 2,6-DTBP (HCN1 channels; 10 and 100 μM, applied from the outside): 4-adduct tolerance is retained

inhibition of HCN1 channel gating (HCN1 channels): largely ineffective
dispersion into an aqueous buffer [4]: reasonably easy to disperse
SMILES: CC(C)(C)c1cc(C(=O)CCCCCCCCC(O)CO)cc(C(C)(C)C)c1O (stereo not drawn) [BP4L-10:0:1]

absorption / bioavailability from whole blood concentration [5]: absorbed demonstrating bioavailability
SMILES: CC(C)(C)c1cc(C(=O)CCCCCCCC/C=C/CCCCCCC(O)CO)cc(C(C)(C)C)c1O (stereo not drawn) [BP4L-18:1:1, (E)-1-(3,5-di-tert-butyl-4-hydroxyphenyl)-18,19-dihydroxynonadec-10-en-1-one]
inhibition of HCN1 channel gating (HCN1 channels): concentration-dependent; also recorded: effectively inhibits channel gating with a potency and efficacy indistinguishable from free 2,6-DT BP

SMILES: CCN(c1ccccc1)c1cc(=NC)n(C)c(C)n1.Cl [ZD7288]
anti-hyperalgesia [6]: significant anti-hyperalgesia

SMILES: COc1cc2c(cc1OC)CC(=O)N(CCCN(C)C[C@H]1Cc3cc(OC)c(OC)cc31)CC2 [ivabradine]
anti-hyperalgesia [6]: significant anti-hyperalgesia
